Data from patent US20220323389A1, “TREATING NON-ALCOHOLIC FATTY LIVER DISEASE AND INFLAMMATORY STEATOHEPATITIS WITH SLC25A1 INHIBITORS” (GEORGETOWN UNIVERSITY, priority 2019, published 2022).

Columns and labels:
[1] = test system: mice fed with a normal diet; test: Body weight of mice fed control (normal) diet and treated with CTPI-2; type: in vivo; conditions: CTPI-2 for 5 months
Text: Cells, reagents, antibodies, primers. CTPI-2 was purchased from Enamine Ltd. (Monmouth Jct, N.J.). The anti-SLC25A1 antibody used in immunoblots was either from Santa Cruz Biotech (Dallas, Tex.), (#sc-86392), employed at 1:1000 dilution, or from Proteintech (15235-1-AP, Rosemont, Ill.), employed at 1:1000 dilution. Mice and diets. For the majority of the experiments (except for experiments harboring genetic alterations of the Slc25a1 gene), DIO C57BL/6J mice were purchased from Jackson Laboratory (Bar Harbor, Me.) between 4-6 weeks of age. Mice were acclimated in the Georgetown University animal facility for at least one week. […] During the course of the experiments, mice were housed at one mouse per cage and food consumption was measured regularly. […] Protein quantification was done by using a Coomassie (Bradford) Protein Assay Kit (Pierce, Waltham Mass.). […] The steatosis grade was scored according to the degree of liver involvement with 0, <5%; 1, 5% to 33%; 2, 33% to 50%; and 3, >50%. Alternatively, the percentage of steatosis per area was calculated with ImageJ program. […] Targeted quantitation of triglycerides was performed using multiple reaction monitoring mass spectrometry. […] Signal intensities from all MRM Q1/Q3 ion pairs for triglycerides were ranked to ensure selection of the most intense precursor and fragment ion pair for MRM-based quantitation. […]

[2] = test system: HepG2 cells; test: mRNA levels (RT-qPCR) in tissue culture cells treated with CTPI-2 with or without citrate; type: cell-based
Protocol: FIGS. 6 A-B show citrate and Ac-CoA levels derived from liver extracts of HFD-vehicle (light) or HFD+CTPI-2 (dark). FIGS. 6C-D show levels of the indicated triacylglycerides (TAG, (FIG. 6C)) and total fatty acids (FA, panel D) detected with the Lipidyzer platform. N=2-3 mice per group. FIG. 6E-F show levels of the indicated metabolites detected with targeted LC-MS analysis. […] The indicated mRNA levels were analyzed with RT-qPCR. H. Model summarizing findings as explained in the Examples. Bars indicate Standard Deviations. *p≤0.05, **p≤0.01, ***p≤0.001.
To corroborate the direct effect of CTPI-2 and of citrate in the regulation of the genes identified by our analysis, the effects of the drug and of citrate supplementation in tissue culture cells were explored.

[3] = target: SLC25A1 (Homo sapiens, UniProt P53007); conditions: previous studies performed in vitro (Fernandez et al.); cited from earlier work
[4] = test system: liver of HFD-fed mice; test: Liver steatosis / steatohepatitis histology and serum chemistry in HFD-fed mice (time course); type: in vivo, mouse
Text: (§1) Cells, reagents, antibodies, primers. CTPI-2 was purchased from Enamine Ltd. (Monmouth Jct, N.J.). The anti-SLC25A1 antibody used in immunoblots was either from Santa Cruz Biotech (Dallas, Tex.), (#sc-86392), employed at 1:1000 dilution, or from Proteintech (15235-1-AP, Rosemont, Ill.), employed at 1:1000 dilution. Mice and diets. For the majority of the experiments (except for experiments harboring genetic alterations of the Slc25a1 gene), DIO C57BL/6J mice were purchased from Jackson Laboratory (Bar Harbor, Me.) between 4-6 weeks of age. Mice were acclimated in the Georgetown University animal facility for at least one week. At the indicated times, mice were randomized to a standard laboratory chow diet (Labdiet #5053, St. Louis, Mo.) or the high fat diet (Researchdiets D12492, New Brunswick, N.J.), with 60% calories derived from fat (lard), and 20% from sucrose. During the course of the experiments, mice were housed at one mouse per cage and food consumption was measured regularly. Animals were maintained in a normal light-cycle and provided with water ad libitum. CTPI-2 treatment. CTPI-2 was administered at 50 mg/kg via intra-peritoneal injection on alternate days. CTPI-2 was diluted either in DMSO (at 0.2% final concentration) using DMSO as vehicle control, or in 0.47% Sodium Bicarbonate (NaCO3) at a final concentration of 14 mM. NaCO3 (0.47%) served as vehicle control. Immunoblot of murine tissues. Frozen tissue samples were homogenized in radioimmunoprecipitation (RIPA) buffer with protease inhibitor cocktails. Protein quantification was done by using a Coomassie (Bradford) Protein Assay Kit (Pierce, Waltham Mass.). Equal amount of protein lysate was loaded and separated by Novex™ 4-20% Tris-Glycine Mini Gel (Invitrogen, Carlsbad, Calif.), then transferred to a PVDF membrane. Appropriate horseradish peroxidase-conjugated secondary antibody (Invitrogen) was applied after incubation with primary antibody. SuperSignal™ West Pico PLUS Chemiluminescent Substrate (Thermo Fisher Scientific, Waltham, Mass.) was used for protein detection. SLC25a1 strains. The original Slc25a1 tm1a strain was purchased from the Mutant Mouse Resource and Research Center (MMRRC, Chapel Hill, N.C.) (C57BL/6N-Slc25a1^tm1a(EUCOMM)Wtsi, RRID: MMRRC_042258-UCD). The Tg(Alb-cre)21M (Alb-Cre) mice were purchased from Jackson Laboratory (#003574). Slc25a1^+/−, Slc25a1^fl/fl and Alb/Cre mice were genotyped by conventional PCR with genomic DNA extracted from the mouse tail biopsies. Agarose gel electrophoresis was used for analysis of PCR product analysis. The PCR conditions used were as follows: 95° C. for 4 minutes, followed by 40 cycles (95° C. for 30 seconds, 65° C. for 30 seconds, and 72° C. for 50 seconds), 72° C. for 2 min then kept in 4° C. before used. Histological Analysis. Assessment of steatosis was performed on paraffin embedded H&E stained sections derived from 3-6 animals and on multiple images for each animal. The steatosis grade was scored according to the degree of liver involvement with 0, <5%; 1, 5% to 33%; 2, 33% to 50%; and 3, >50%. Alternatively, the percentage of steatosis per area was calculated with ImageJ program. Lypidomic analysis. Targeted quantitation of triglycerides was performed using multiple reaction monitoring mass spectrometry. The samples were resolved on an CORTECS T3 2.7 μm, 2.1×30 mm column online with a triple quadrupole mass spectrometer (Xevo-TQ-S, Waters Corporation, Milford, Mass.) operating in the multiple reaction monitoring (MRM) mode. Signal intensities from all MRM Q1/Q3 ion pairs for triglycerides were ranked to ensure selection of the most intense precursor and fragment ion pair for MRM-based quantitation. […] The LC and MRM method used here for the study was developed by Waters Corporation. The metabolite ratios were calculated by normalizing the peak area of endogenous metabolites within tissue samples normalized to the internal standard. Processed data was normalized with respect to tissue weight taken for analysis. […]

[5] = test system: SLC25A1; test: Immunoblot of SLC25A1 protein in tissues of HFD-fed mice; type: in vivo, mouse
Text: Cells, reagents, antibodies, primers. CTPI-2 was purchased from Enamine Ltd. (Monmouth Jct, N.J.). The anti-SLC25A1 antibody used in immunoblots was either from Santa Cruz Biotech (Dallas, Tex.), (#sc-86392), employed at 1:1000 dilution, or from Proteintech (15235-1-AP, Rosemont, Ill.), employed at 1:1000 dilution. Mice and diets. For the majority of the experiments (except for experiments harboring genetic alterations of the Slc25a1 gene), DIO C57BL/6J mice were purchased from Jackson Laboratory (Bar Harbor, Me.) between 4-6 weeks of age. Mice were acclimated in the Georgetown University animal facility for at least one week. At the indicated times, mice were randomized to a standard laboratory chow diet (Labdiet #5053, St. Louis, Mo.) or the high fat diet (Researchdiets D12492, New Brunswick, N.J.), with 60% calories derived from fat (lard), and 20% from sucrose. During the course of the experiments, mice were housed at one mouse per cage and food consumption was measured regularly. Animals were maintained in a normal light-cycle and provided with water ad libitum. CTPI-2 treatment. CTPI-2 was administered at 50 mg/kg via intra-peritoneal injection on alternate days. […] Protein quantification was done by using a Coomassie (Bradford) Protein Assay Kit (Pierce, Waltham Mass.). […] The steatosis grade was scored according to the degree of liver involvement with 0, <5%; 1, 5% to 33%; 2, 33% to 50%; and 3, >50%. Alternatively, the percentage of steatosis per area was calculated with ImageJ program. […] Targeted quantitation of triglycerides was performed using multiple reaction monitoring mass spectrometry. […] Signal intensities from all MRM Q1/Q3 ion pairs for triglycerides were ranked to ensure selection of the most intense precursor and fragment ion pair for MRM-based quantitation. […] The metabolite ratios were calculated by normalizing the peak area of endogenous metabolites within tissue samples normalized to the internal standard. […]

[6] = test system: liver of HFD-fed mice; test: Liver metabolites and lipid profile (LC-MS, Lipidyzer) in HFD-fed mice; type: in vivo, mouse
Text: as §1

[7] = HFD-fed mice, CTPI-2 50 mg/kg i.p. alternate days

Chain of SLC25A1 (Homo sapiens, UniProt P53007) (P53007 14-311, species assumed): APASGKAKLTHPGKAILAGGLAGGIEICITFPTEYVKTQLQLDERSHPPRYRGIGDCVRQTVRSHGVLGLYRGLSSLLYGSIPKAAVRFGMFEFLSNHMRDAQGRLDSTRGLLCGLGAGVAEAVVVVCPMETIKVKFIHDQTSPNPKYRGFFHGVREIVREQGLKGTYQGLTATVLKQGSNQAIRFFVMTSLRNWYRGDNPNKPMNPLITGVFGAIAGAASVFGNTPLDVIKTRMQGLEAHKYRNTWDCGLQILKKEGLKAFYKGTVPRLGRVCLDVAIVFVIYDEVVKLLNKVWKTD

In the case of O=C(O)c1ccccc1NS(=O)(=O)c1ccc(Cl)c([N+](=O)[O-])c1 [CTPI-2], the body weights [1] is reported as “did not modify body weights”, the “effect of citrate supplementation on CTPI-2 gene inhibition (FASN, ACACA, AldoA, Aldo/B)” value ([2]; 5 mM sodium citrate) is reported as “completely rescued by citrate” and the “expression of FA synthesis genes FASN and ACACA” value ([2]; CTPI-2 5-12 hours) is reported as “inhibited”. The “expression of glycolytic/gluconeogenesis genes AldoA and Aldo/B” value ([2]; CTPI-2 5-12 hours) was “inhibited”, the “SLC25A1 expression levels in vitro” value [3] was “did not affect the expression levels of this protein” and the “mitochondrial citrate transport activity” value [3] was “interfered with the mitochondrial citrate transport activity”. The “prevention of liver steatosis relative to Cre/Alb+:Slc25a1−/− mice” value ([4]; HFD conditions) was “more effectively prevented liver steatosis”, the “alanine aminotransferase (ALT) levels” value [4, 7] was “normalized” and the “total serum cholesterol levels” value [4, 7] was “normalized”. For the same molecule, the serum triglyceride levels ([4]; HFD-fed mice, CTPI-2 50 mg/kg i.p. alternate days, LC-MS) was “normalized”, the evolution to steatohepatitis ([4]; HFD-fed mice, CTPI-2 started after 3 months HFD) was “prevented the evolution to steatohepatitis” and the liver steatosis ([4]; HFD-fed mice, CTPI-2 started after 3 months HFD, 4, 8, 12 weeks treatment) was “nearly completely reversed liver steatosis”. For the same molecule, the “liver histology compared with normal-diet animals” value ([4]; after 3 months of CTPI-2 and 6 months on the HFD, most treated mice) was “nearly indistinguishable from those of animals fed a normal diet”, the “early stages of steatosis” value ([4]; steatosis present after 3 months HFD when CTPI-2 started) was “reverted these early stages of steatosis” and the “SLC25A1 expression levels in the adipose tissue” value [5] was “reduced SLC25A1 expression levels”. For the same molecule, the “SLC25A1 expression levels in the liver” value [5] was “reduced SLC25A1 expression levels”, the “SLC25A1 expression levels in the pancreas” value [5] was “not in the pancreas” and the “Ac-CoA concentration in the liver” value ([6]; HFD+CTPI-2 vs HFD-vehicle) was “significantly lower”. For the same molecule, the “citrate concentration in the liver” value ([6]; HFD+CTPI-2 vs HFD-vehicle) was “significantly lower”, the liver diglycerides levels ([6]; LC-MS) was “reduced the levels” and the “liver linoleic acid levels” value ([6]; LC-MS) was “reduced the levels”. The liver monoglycerides levels ([6]; LC-MS) was “reduced the levels”, the “liver palmitic acid levels” value ([6]; LC-MS) was “reduced the levels” and the liver phosphatidylglycerol levels ([6]; LC-MS) was “reduced the levels”. For the same molecule, the “liver concentration of long chain triglycerides” value ([6]; Lipidyzer platform) was “significantly diminished”, the “total level of free fatty acids in the liver” value ([6]; Lipidyzer platform, particularly chain 16 to 25) was “significantly diminished” and the “liver concentration of lactate” value ([6]; targeted LC-MS) was “decreased”. For the same molecule, the “liver concentration of pyruvate” value ([6]; targeted LC-MS) was “decreased”.
